In patent US20130287918A1, “MICROBICIDAL COMPOSITION” (DUPONT NUTRITION DIOSCIENCES APS, priority 2010, published 2013):

Assays:
Format in all cases: cell-based
[1] = test system: pool of 4 yeast species (Candida tropicalis DCS 604, Zygosaccharomyces bailii DCS 1167 and DCS 1172, Pichia spp DCS 1175); test: Salsa sauce fresh challenge study, yeast count on YGC agar; conditions: Salsa sauce 4° C., FP1000-D1 1%, FP1000-D2 1%, MG200 1%, Potassium Sorbate 0.1%
Source text: Samples of the Salsa sauce (formula in table 17) with and without the experimental blend were produced. […] It needs to be mentioned that the Salsa sauce was not pasteurized.
(§1) Each batch was split (scheme table 15) in probes of 90 gram and placed in sterile jars. 21 probes of each batch were inoculated with the desired level of yeast and 5 probes of each batch were inoculated with mould spores, respectively at a targeted inoculation rate of 300 to 800 CFU/g.
(§2) The viscous products were thoroughly mixed (2 minutes) within 10 minutes of inoculation to ensure that the inoculum was evenly distributed throughout the product. One sample remained un-inoculated and was used as negative control to monitor the native contamination flora. All samples were incubated in the dark at chilled temperature (4° C.) and assayed for yeast, plated on an appropriate yeast medium, until confirmed failure (≧1.0E+06 CFU/g) or until visible mould growth, respectively. In parallel, the growth of lactic acid bacteria and total cell count were monitored on MRS and PCA in all the batches and the non-inoculated blind, respectively.
In total 8 strains, available from Danisco's Culture Collection (DCS) (Danisco A/S, Brabrand, Denmark) were employed as 1 yeast and 1 mould pool in the respective Salsa sauce. Originally, they were isolated e.g. from spoiled ketchup, mayonnaise. Salsa dressing or obtained from official culture collections such as DMSZ.
(§3) Before each experiment, a stock culture of each yeast, maintained at −86° C. in suitable broth containing glycerol 50% (v/v), was propagated through two consecutive growth cycles in suitable media (YGC-agar (VWR) pH 5.1+0.2; YM Broth (Becton, Dickinson and Company) at pH 6.0±0.2 at and temperature (25° C.). The overnight cultures are diluted in saline solution to obtain working cultures. A cocktail of the yeasts was generated by adding equal cell counts of each culture into a sterile container and mixed appropriately. The yeast cocktail was diluted and inoculated into the product in order to achieve the final desired concentration. Pool counts were verified via plate count.
The Salsa sauces were assayed at time zero, day 3, day 7, day 14 and were plated bi-weekly thereafter until day 92. CFU/g was detected for 3 samples from each batch inoculated with yeast. Before each sampling (closed jar), the sample was thoroughly mixed, 10 gram sample were aseptically pulled from each jar and diluted with peptone water. Each sample was stomached (1 min, normal setting) plated in duplicate onto YGC agar (VWR) and MRS (VWR), and incubated at 25° C. for 5 days and 37° C. for 3 days, respectively.

[2] = test system: pool of 4 mould species (Penicillium sp DCS 1380, Aspergillus versicolor DCS 1069, Aspergillus parasiticus DCS 709, Mucor sp DCS 1140); test: Salsa sauce fresh challenge study, mould growth; conditions: Salsa sauce 4° C.; blends 1%
Description: as §1, §2
Mould spores were prepared as follows: approx. 2 ml of sterile demineralised water was used to wash the spores off an out-grown mould cultivar (minimum 5 day old plate). This suspension is transferred to a sterile container. Pool counts were verified via plate count.
5 samples from each batch inoculated with mould were visually analysed for mould growth.

[3] = test system: pool of 4 yeast species (Candida tropicalis DCS 604, Zygosaccharomyces bailii DCS 1167 and DCS 1172, Pichia spp DCS 1175); test: BBQ sauce challenge study, yeast count on YGC agar; conditions: for Cell counts on YGC-agar (yeast growth): BBQ sauce 20° C., Potassium Sorbate 0.1%
Description: Samples of the BBQ sauce (formula in table 9) with and without the experimental blend were produced in the Danisco Culinary Application Laboratory, Brabrand.
Each batch was split (scheme table 8) in probes of 90 gram and placed in sterile jars. 42 probes of each batch were inoculated with the desired level of yeast and 5 probes of each batch were inoculated with mould spores, respectively at a targeted inoculation rate of 500 to 1000 CFU/g.
as §2, with “incubated” for “incubated in the dark”, “ambient” for “chilled”, “(20°” for “(4°”
In total 8 strains, from available from Danisco's Culture Collection (DCS) (Danisco A/S, Brabrand, Denmark) were employed as one yeast and one mould pool in the respective BBQ sauce. Originally, they were isolated e.g. from spoiled ketchup, mayonnaise. Salsa dressing or obtained from official culture collections such as DMSZ.
as §3, with “company)” for “Company)”
The BBQ sauces were assayed at time zero, day 2, day 5, day 12, weekly until week 10 (day 68) and bi-weekly thereafter until week 19 (day 131). CFU/g was detected for 3 samples from each batch inoculated with yeast. Before each sampling (closed jar), the sample was thoroughly mixed. 10 gram sample were aseptically pulled from each jar and diluted with peptone water. Each sample was stomached (1 min, normal setting) plated in duplicate onto YGC agar (VWR) and MRS (VWR), and incubated at 25° C. for 5 days and 37° C. for 3 days, respectively.

Q: How did the “Cell counts on YGC-agar (yeast growth)” value ([1]; day 0) turn out when C/C=C/C=C/C(=O)[O-].[K+] [Potassium Sorbate, potassium sorbate] was run?
A: 4.75E+02 CFU/g

Q: And the “Cell counts on YGC-agar (yeast growth)” value ([1]; day 2)?
A: 2.50E+02 CFU/g

Q: What about the “Cell counts on YGC-agar (yeast growth)” value ([1]; day 5) of the same compound?
A: 1.00E+02 CFU/g

Q: What about the “Cell counts on YGC-agar (yeast growth)” value ([1]; day 7) of the same compound?
A: 6.80E+01 CFU/g

Q: And the “Cell counts on YGC-agar (yeast growth)” value ([1]; day 14)?
A: 4.80E+01 CFU/g

Q: What about the “Cell counts on YGC-agar (yeast growth)” value ([1]; day 28) of the same compound?
A: 1.45E+02 CFU/g

Q: And the “Cell counts on YGC-agar (yeast growth)” value ([1]; day 41)?
A: 3.30E+01 CFU/g

Q: And the “Cell counts on YGC-agar (yeast growth)” value ([1]; day 55)?
A: 3.20E+01 CFU/g

Q: What about the “Cell counts on YGC-agar (yeast growth)” value ([1]; day 93) of the same compound?
A: 3.30E+01 CFU/g

Q: And the “control of mould outgrowth (plate count in yeast inoculated samples)” value [2]?
A: 12 weeks

Q: What about the “initial reduction of the inoculated cell load” value ([3]; BBQ sauce, YM10 1% and 0.5%, potassium sorbate) of the same compound?
A: 3 log

Q: What about the “Cell counts on YGC-agar (yeast growth)” value ([3]; day 0, YM10 1%, MG200 1%, Competitor product 1.25%) of the same compound?
A: 6.07E+02 CFU/g

Q: And the “Cell counts on YGC-agar (yeast growth)” value ([3]; day 2, YM10 1%, MG200 1%, Competitor product 1.25%)?
A: 1.47E+02 CFU/g

Q: And the “Cell counts on YGC-agar (yeast growth)” value ([3]; day 5, YM10 1%, MG200 1%, Competitor product 1.25%)?
A: 2.50E+01 CFU/g

Q: What about the “Cell counts on YGC-agar (yeast growth)” value ([3]; day 12, YM10 1%, MG200 1%, Competitor product 1.25%) of the same compound?
A: 1.00E+00 CFU/g

Q: What about the “Cell counts on YGC-agar (yeast growth)” value ([3]; day 19, YM10 1%, MG200 1%, Competitor product 1.25%) of the same compound?
A: 1.00E+00 CFU/g

Q: And the “Cell counts on YGC-agar (yeast growth)” value ([3]; day 26, YM10 1%, MG200 1%, Competitor product 1.25%)?
A: 1.00E+00 CFU/g

Q: And the “Cell counts on YGC-agar (yeast growth)” value ([3]; day 41, YM10 1%, MG200 1%, Competitor product 1.25%)?
A: 1.00E+00 CFU/g

Q: What about the “Cell counts on YGC-agar (yeast growth)” value ([3]; day 49) of the same compound?
A: 1.00E+00 CFU/g

Q: What about the “Cell counts on YGC-agar (yeast growth)” value ([3]; day 55) of the same compound?
A: 1.00E+00 CFU/g

Q: And the “Cell counts on YGC-agar (yeast growth)” value ([3]; day 68)?
A: 1.00E+00 CFU/g

Q: What about the “Cell counts on YGC-agar (yeast growth)” value ([3]; day 82) of the same compound?
A: 1.00E+00 CFU/g

Q: And the “Cell counts on YGC-agar (yeast growth)” value ([3]; day 104)?
A: 1.00E+00 CFU/g

Q: And the “Cell counts on YGC-agar (yeast growth)” value ([3]; day 117)?
A: 1.00E+00 CFU/g

Q: What about the “Cell counts on YGC-agar (yeast growth)” value ([3]; day 131) of the same compound?
A: 2.50E+01 CFU/g
